Measurements as given in article PMC10244169, “Psychedelics promote plasticity by directly binding to BDNF receptor TrkB” (Nature Neuroscience, 2023).

Columns and labels:
TrkB:PLCγ1 [1] = target: T1, TrkB:PLCγ1 (Mus musculus, UniProt P15209); experiment: TrkB:PLCγ1 interaction in PFC and hippocampus after single LSD injection (ELISA, co-immunoprecipitation); type: in vivo; details: WT mice, single administration
T1 construct: from tissue; host or cells: prefrontal cortex and hippocampus of adult mice
T1 sequence (P15209 32-821): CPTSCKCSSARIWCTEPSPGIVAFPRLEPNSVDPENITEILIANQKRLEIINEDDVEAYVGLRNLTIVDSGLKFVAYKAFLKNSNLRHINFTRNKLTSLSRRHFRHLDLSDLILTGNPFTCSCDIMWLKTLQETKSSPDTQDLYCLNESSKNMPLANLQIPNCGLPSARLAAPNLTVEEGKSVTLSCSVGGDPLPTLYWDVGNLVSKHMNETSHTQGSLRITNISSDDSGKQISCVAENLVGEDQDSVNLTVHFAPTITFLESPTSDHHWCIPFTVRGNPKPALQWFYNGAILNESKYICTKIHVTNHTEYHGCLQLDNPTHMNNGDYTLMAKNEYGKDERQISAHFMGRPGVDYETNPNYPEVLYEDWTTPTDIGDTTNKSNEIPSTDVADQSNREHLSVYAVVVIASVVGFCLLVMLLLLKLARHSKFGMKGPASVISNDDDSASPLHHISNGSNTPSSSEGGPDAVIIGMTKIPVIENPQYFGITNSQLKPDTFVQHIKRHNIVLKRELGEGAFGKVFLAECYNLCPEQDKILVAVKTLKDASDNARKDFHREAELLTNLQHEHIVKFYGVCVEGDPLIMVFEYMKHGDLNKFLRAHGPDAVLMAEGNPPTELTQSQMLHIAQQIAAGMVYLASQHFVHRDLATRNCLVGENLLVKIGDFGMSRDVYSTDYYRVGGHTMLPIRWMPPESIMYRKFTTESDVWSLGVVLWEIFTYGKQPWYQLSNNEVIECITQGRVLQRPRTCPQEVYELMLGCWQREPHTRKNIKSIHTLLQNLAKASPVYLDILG
Method: (§1) The phosphorylation of TrkB (pY816) and interaction with PLCγ1 were assessed by enzyme-linked immunosorbent assay (ELISA) as previously described[11],[80],[81] with minor modifications. Briefly, white 96-well plates (PerkinElmer, OptiPlate 96F-HB) were precoated with goat anti-TrkB (R&D systems, AF1494; 1:500, overnight, 4 °C) antibody in carbonate buffer (pH 9.8) and blocked with 3% BSA in PBS with 0.1% Tween-20 (PBS-T) for 2 h at room temperature. […] Samples were incubated overnight at 4 °C, and 24 h later plates were washed with PBS-T and incubated with either rabbit anti-phospho-TrkB(Tyr816) (Cell Signaling Technology, 4168S; 1:2,000), rabbit anti-PLCγ1 (Cell Signaling Technologies, 5690S; 1:2,000) or rabbit anti-Trk (Cell Signaling Technologies, 92991; 1:2,000) antibodies overnight at 4 °C. After washing with PBS-T, plates were incubated with HRP-conjugated goat anti-rabbit (Bio-Rad, 170–5046; 1:5,000, 1 h, room temperature) antibody, followed by more washing with PBS-T. Finally, the chemiluminescent signal was read after brief incubation with Pierce ECL substrate (Thermo Fisher Scientific, 32106). Luminescence from blank wells that contained all reagents but the sample lysates was used to determine background signal. […]

TrkB:PLCγ1 [2] = target: T2, TrkB:PLCγ1 (Mus musculus, UniProt P15209, Y433F); experiment: as above; type: in vivo; details: Y433F^+/− mice
T2 construct: from tissue; host or cells: prefrontal cortex and hippocampus of adult mice
T2 sequence (P15209 32-821 Y433F): as the sequence (P15209 32-821) above, with Y402F counted along it
T2 sequence (P15209 32-821, stated change not applied): as the sequence (P15209 32-821) above
Method: as §1

## CCN(CC)C(=O)C1C=C2c3cccc4[nH]cc(c34)CC2N(C)C1 (centres unmarked) [LSD, lysergic acid diethylamide]
TrkB:PLCγ1 [1]
  TrkB:PLCγ1 interaction: increases TrkB:PLCγ1 interaction
TrkB:PLCγ1 [2]
  TrkB:PLCγ1 interaction: these effects are impaired
